Laboratory results from patent US7803801B2, “Aminopyridine compounds having Syk inhibitory activity” (Japan Tobacco, Inc., priority 2005, dated 2010).
Counter-ions that a name gives are not always drawn.

target: GST-Syk Full Protein (human) (Homo sapiens, UniProt P43405); assay: Syk kinase inhibition test (HTRF method); assay type: biochemical; settings: HTRF, 100 μM ATP, 30 min room temperature, average; read-out: sykHTRF ave IC50
Method: Syk Kinase Inhibition Test (HTRF Method)
After the compounds were serially diluted with dimethylsulfoxide (DMSO), 10 μL of those 10-fold diluted with kinase buffer (20 mM HEPES pH 7.0, 10 mM MgCl2, 50 mM NaCl, 1 mM 2-ME, 0.05% BSA) was added to opti-plate HTRF-96 (Packard) (final DMSO concentration: 2%). 20 μL of a substrate solution (kinase buffer as mentioned above containing Syk Specific-Peptide Substrate Biot-EDPDYEWPSA-NH2 (Peptide Laboratory) 625 nM, 250 μM ATP (SIGMA) was added (final substrate concentration 250 nM, 100 μM ATP), and further 20 μL of an enzyme solution (kinase buffer as mentioned above containing GST-Syk Full Protein (human) 16 nM) (final concentration 6.4 nM) was added and the mixture was immediately stirred with a plate shaker to start enzyme reaction. After reacted at room temperature (20 to 25° C.) for 30 minutes, the enzyme reaction was terminated by adding 100 μL/well of a buffer for terminating and detecting the reaction (30 mM HEPES pH 7.0, 150 mM KF, 0.15% BSA, 0.075% Tween-20, 75 mM EDTA) containing HTRF reagent (5 μg/ml XL665-Streptavidin (CIS bio), 170 ng/ml Eu(K)-anti-PhosphoTyrosin, PT-66 (CIS bio)) (final concentration 20 mM HEPES pH 7.0, 100 mM KF, 0.1% BSA, 0.05% Tween-20, 50 mM EDTA). After allowed to stand still at room temperature for 1 hour, inhibitory effect of a compound against Syk kinase enzymatic activity was evaluated by measuring 665/620 fluorescence ratio to excitation light at 337 nm by ARVO (Wallac).

| IC50 [nM] | SMILES |
| --- | --- |
| > 1000 | Cc1cccnc1Nc1cccc(-c2cnc([C@H](C)O)s2)n1 [Compound A-327] |
| > 1000 | Cc1ccnc(Nc2cccc(-c3cnc([C@H](Cc4ccc(OCc5ccccc5)cc4)NC(=O)OC(C)(C)C)s3)n2)c1 [Compound A-85] |
| > 1000 | Cc1ccnc(Nc2cccc(-c3cnc([C@H](CCC(=O)OCc4ccccc4)NC(=O)OC(C)(C)C)s3)n2)c1 [Compound A-96] |
| > 1000 | CON(C)C(=O)c1nc([C@H](C)NC(C)=O)sc1-c1cccc(Nc2cc(C)ccn2)n1 [Compound A-125] |
| > 1000 | CCOC(=O)c1nc([C@H](C)NC(=O)OC(C)(C)C)sc1-c1cccc(Nc2cc(C)ccn2)n1 [Compound A-100] |

same assay, conditions: Tables 1-x, compounds A; read-out: sykHTRF ave IC50

| IC50 [nM] | SMILES |
| --- | --- |
| 100 to 1000 | COCCN(C)C(=O)C1CCN(c2ncc(-c3cccc(Nc4cc(C)ccn4)n3)s2)CC1 [Compound A-451] |
| < 100 | Cc1ccnc(Nc2cccc(-c3cnc(N(C)CC(C)(C)O)s3)n2)c1 [Compound A-702, 2-methyl-1-(N-methyl-N-{5-[6-(4-methylpyridin-2-ylamino)pyridin-2-yl]thiazol-2-yl}amino)propan-2-ol] |
| < 100 | Cc1ccnc(Nc2cccc(-c3cnc(N4CCC(NS(C)(=O)=O)CC4)s3)n2)c1 [Compound A-484, N-(1-{5-[6-(4-methylpyridin-2-ylamino)pyridin-2-yl]thiazol-2-yl}piperidin-4-yl)methanesulfonamide] |
| < 100 | Cc1ccnc(Nc2cccc(-c3cnc(N4CCCc5c(C(=O)O)cccc54)s3)n2)c1 [Compound A-627, 1-{5-[6-(4-methylpyridin-2-ylamino)pyridin-2-yl]thiazol-2-yl}-1,2,3,4-tetrahydroquinoline-5-carboxylic acid] |
| < 100 | Cc1ccnc(Nc2cccc(-c3cnc(N(C)CCC/C=C/C(=O)O)s3)n2)c1 [Compound A-640, (E)-6-(N-methyl-N-{5-[6-(4-methylpyridin-2-ylamino)pyridin-2-yl]thiazol-2-yl}amino)hex-2-enoic acid dihydrochloride] |
| 100 to 1000 | Cc1ccnc(Nc2cccc(-c3cnc(CN4CCc5c(cccc5C(=O)O)C4)s3)n2)c1 [Compound A-608] |
| 100 to 1000 | O=C(O)C1CCN(c2ncc(-c3cccc(Nc4ccccn4)n3)s2)CC1 [Compound A-683] |
| < 100 | O=C(O)CC1CCN(c2ncc(-c3cccc(Nc4cnccn4)n3)s2)CC1 [Compound A-680, (1-{5-[6-(pyrazin-2-ylamino)pyridin-2-yl]thiazol-2-yl}piperidin-4-yl)acetic acid] |
| 100 to 1000 | Cc1ccnc(Nc2cccc(-c3cnc(CN4CCC[C@H]4C(N)=O)s3)n2)c1 [Compound A-667] |
| 100 to 1000 | Cc1ccnc(Nc2cccc(-c3cnc(N(C)C4CCN(C(=O)N5CCC(O)CC5)CC4)s3)n2)c1 [Compound A-703] |
| 100 to 1000 | Cc1ccnc(Nc2cccc(-c3cnc([C@@H](N)Cc4ccc(O)cc4)s3)n2)c1 [Compound A-389] |
| 100 to 1000 | CNC(=O)C1CCN(Cc2ncc(-c3cccc(Nc4cc(C)ccn4)n3)s2)CC1 [Compound A-686] |
| 100 to 1000 | Cc1ccnc(Nc2cccc(-c3cnc(NCc4ccccc4)s3)n2)c1 [Compound A-694] |
| < 100 | CNC(=O)C1CCC(N(C)c2ncc(-c3cccc(Nc4cc(C)ccn4)n3)s2)CC1 (stereo not drawn) [Compound A-492, N-methyl-4-(N′-methyl-N′-{5-[6-(4-methylpyridin-2-ylamino)pyridin-2-yl]thiazol-2-yl}amino)cyclohexanecarboxamide] |
| < 100 | Cc1ccnc(Nc2cccc(-c3cnc(N(Cc4ccccc4)[C@H]4CC[C@H](CC(=O)O)CC4)s3)n2)c1 [Compound A-624, [trans-4-(N-benzyl-N-{5-[6-(4-methylpyridin-2-ylamino)pyridin-2-yl]thiazol-2-yl}amino)cyclohexyl]acetic acid] |
| < 100 | Cc1ccnc(Nc2cccc(-c3cnc(N4CCC(C(C)(C)C(=O)O)CC4)s3)n2)c1 [Compound A-718, 2-methyl-2-(1-{5-[6-(4-methylpyridin-2-ylamino)pyridin-2-yl]thiazol-2-yl}piperidin-4-yl)propionic acid dihydrochloride] |

| IC50 [nM] | SMILES |
| --- | --- |
| 100 to 1000 | NC(=O)[C@@H]1CCCN1c1ncc(-c2cccc(Nc3cc(CC(=O)O)ccn3)n2)s1 [Compound A-559] |
| < 100 | Cc1ccnc(Nc2cccc(-c3cnc(N4CCC(C(F)C(=O)O)CC4)s3)n2)c1 (stereo not drawn) [Compound A-684, fluoro-(1-{5-[6-(4-methylpyridin-2-ylamino)pyridin-2-yl]thiazol-2-yl}piperidin-4-yl)acetic acid] |
| 100 to 1000 | Cc1ccnc(Nc2cccc(-c3cnc(N4C[C@H](O)C[C@H]4C(=O)O)s3)n2)c1 [Compound A-569] |
| < 100 | CN(c1ncc(-c2cccc(Nc3cc(C(F)(F)F)ccn3)n2)s1)[C@H]1CC[C@H](C(=O)O)CC1 [Compound A-638, trans-4-(N-methyl-N-{5-[6-(4-trifluoromethylpyridin-2-ylamino)pyridin-2-yl]thiazol-2-yl}amino)cyclohexanecarboxylic acid] |
| < 100 | O=C(O)CC1CCN(c2ncc(-c3cccc(Nc4ccc(Cl)cn4)n3)s2)CC1 [Compound A-636, (1-{5-[6-(5-chloropyridin-2-ylamino)pyridin-2-yl]thiazol-2-yl}piperidin-4-yl)acetic acid dihydrochloride] |
| < 100 | Cc1ccnc(Nc2cccc(-c3cnc(COCC(=O)O)s3)n2)c1 [Compound A-615, {5-[6-(4-methylpyridin-2-ylamino)pyridin-2-yl]thiazol-2-ylmethoxy}acetic acid hydrochloride] |
| < 100 | Cc1ccnc(Nc2cccc(-c3cnc(N(C[C@H]4CC[C@H](C(=O)O)CC4)C(C)C)s3)n2)c1 [Compound A-626, trans-4-[(N-isopropyl-N-{5-[6-(4-methylpyridin-2-ylamino)pyridin-2-yl]thiazol-2-yl}amino)methyl]cyclohexanecarboxylic acid] |
| < 100 | CC(=O)NCCNC(=O)C1CCC(N(C)c2ncc(-c3cccc(Nc4cc(C)ccn4)n3)s2)CC1 (stereo not drawn) [Compound A-494, N-(2-acetylaminoethyl)-4-(N′-methyl-N′-{5-[6-(4-methylpyridin-2-ylamino)pyridin-2-yl]thiazol-2-yl}amino)cyclohexanecarboxamide] |
| 100 to 1000 | Cc1ccnc(Nc2cccc(-c3cnc(N4CCN(CC(=O)N(C)C)C(=O)C4)s3)n2)c1 [Compound A-467] |
| 100 to 1000 | Cc1ccnc(Nc2cccc(-c3cnc(N4CCC(C(=O)N(C)CCO)CC4)s3)n2)c1 [Compound A-448] |
| < 100 | O=C(O)CC1CCN(c2ncc(-c3cccc(Nc4cc(OCC(F)(F)F)ccn4)n3)s2)CC1 [Compound A-700, [1-(5-{6-[4-(2,2,2-trifluoroethoxy)pyridin-2-ylamino]pyridin-2-yl}thiazol-2-yl)piperidin-4-yl]acetic acid dihydrochloride] |
| < 100 | CN(CCC/C=C/C(=O)O)c1ncc(-c2cccc(Nc3cc(C(F)(F)F)ccn3)n2)s1 [Compound A-657, (E)-6-(N-methyl-N-{5-[6-(4-trifluoromethylpyridin-2-ylamino)pyridin-2-yl]thiazol-2-yl}amino)hex-2-enoic acid dihydrochloride] |
| < 100 | Cc1ccnc(Nc2cccc(-c3cnc(N4CCC[C@H]4C(=O)NCCO)s3)n2)c1 [Compound A-658, N-(2-hydroxyethyl)-(S)-1-{5-[6-(4-methylpyridin-2-ylamino)pyridin-2-yl]thiazol-2-yl}pyrrolidine-2-carboxamide] |
| < 100 | Cc1ccnc(Nc2cccc(-c3cnc(N(C)C4CCN(C(=O)N(C)C)CC4)s3)n2)c1 [Compound A-511, N,N-dimethyl-4-(N′-methyl-N′-{5-[6-(4-methylpyridin-2-ylamino)pyridin-2-yl]thiazol-2-yl}amino)piperidine-1-carboxamide] |
| < 100 | Cc1ccnc(Nc2cccc(-c3cnc(N(C)CCCC(=O)O)s3)n2)c1 [Compound A-634, 4-(N-methyl-N-{5-[6-(4-methylpyridin-2-ylamino)pyridin-2-yl]thiazol-2-yl}amino)butyric acid dihydrochloride] |

same assay, conditions: Tables 2-x, thiophene compounds B; read-out: sykHTRK ave IC50

| IC50 [nM] | SMILES |
| --- | --- |
| 100 to 1000 | Cc1ccnc(Nc2cccc(-c3ccc(CN(Cc4ccccc4)C(=O)CCC(=O)O)s3)n2)c1 [Compound B-126] |
| 100 to 1000 | Cc1ccnc(Nc2cccc(-c3ccc(CN(C)C(=O)[C@H]4CC[C@H](C(=O)O)CC4)s3)n2)c1 [Compound B-123] |
| < 100 | Cc1ccnc(Nc2cccc(-c3ccc(CN(Cc4ccc(C(=O)O)cc4)C(=O)C(C)C)s3)n2)c1 [Compound B-127, 4-[(N-isobutyryl-N-{5-[6-(4-methylpyridin-2-ylamino)pyridin-2-yl]thiophen-2-ylmethyl}amino)methyl]benzoic acid] |
| 100 to 1000 | Cc1ccnc(Nc2cccc(-c3ccc(C(=O)N4CCC(C(=O)O)CC4)s3)n2)c1 [Compound B-115] |
| 100 to 1000 | Cc1ccnc(Nc2cccc(-c3ccc(C(=O)NCc4ccc(C(=O)O)cc4)s3)n2)c1 [Compound B-112] |
| 100 to 1000 | Cc1ccnc(Nc2cccc(-c3ccc(C(=O)NC[C@H]4CC[C@H](C(=O)O)CC4)s3)n2)c1 [Compound B-111] |
